From US9517240B2, “Methods and compositions for cancer prevention and treatment” (THE REGENTS OF THE UNIVERSITY OF CALIFORNIA, priority 2006, dated 2016)
“Also recorded” adds a separate entry of the source. Peptide text beside a SMILES is read from it. * marks the point of attachment. Cbz = O=C(OCc1ccccc1)*

Columns and labels:
[1] = system: BRCA1^Δ11p53^Δ5&6 mammary glands; test: Mammary gland whole mounts and histological sections: ductal branching and alveolar expansion; assay type: in vivo, mouse
Procedure: (§1) As progesterone is a potent mitogen for BRCA1^Δ11p53^Δ5&6 MECs specifically it was tested whether blocking PR signaling by anti-progesterone will prevent or delay mammary carcinogenesis in BRCA1^Δ11p53^Δ5&6 conditional knockout mice. An anti-progesterone pellet containing 35 mg/60 days constant release mifepristone or placebo pellet was implanted into twelve 3- and two 4-month-old mice. Mice were monitored weekly for tumor formation. The median tumor latency of BRCA1^Δ11p53^Δ5&6 conditional knockout mice was 6.6 months (n=25) with complete penetrance (FIG. 4A). All control mice or placebo pellet treated mice developed palpable tumor by 8.7 or 5.2 months of ages (n=4), respectively. […] The effects of on ductal branching and alveolar expansion were determined using mammary gland whole mounts and histological sections. […] Only 33±7 ducts in an approximate area of 0.012 mm^2 were identified in-treated mice while 678±49 ducts were found in placebo pellet-treated mice. Dramatic inhibition of tumorigenesis was also seen with the implantation of 35 mg time release (60 day) pellets of CDB-2914. […] CDB-2914 shares structural similarity with mifepristone and binds competitively to PR with high affinity.
The mammary gland was removed and flattened on paraffin paper and fixed in Carnoy's fixative (60% of absolute ethanol, 30% CHCl3, 10% HOAc) for 3 hr. It was subsequently hydrated through a series of solutions with decreasing concentrations of ethanol, and stained in carmine solution (1 g carmine, 2.5 g aluminum potassium sulfate/500 ml of water) overnight. The gland was dehydrated through a series of solutions with increasing ethanol concentrations, 50-100%, washed in xylene twice, and mounted on a slide.

[2] = system: BRCA1^Δ11p53^Δ5&6 conditional knockout mice (mammary tumors); test: Pellet implantation and weekly monitoring for mammary tumor formation in BRCA1/p53 deficient mice; assay type: in vivo, mouse; details: for mammary tumorigenesis / tumor formation (in words): 35 mg/60 day constant release pellet
Procedure: as §1
Nulliparous mature BRCA1^Δ11/p53^Δ5&6 female mice, age 14-20 weeks, were anesthetized and pellets containing either 35 mg/60-day constant release of mifepristone (M8046, Sigma, St. Louis, Mo.) or placebo pellets (Innovative Research of America, Sarasota, Fla.) were implanted in the lateral side of the neck. Mice were monitored weekly for mammary tumors.
This Example describes the early administration of Progesterone Receptor antagonists to mice with a BRCA1 mutation to prevent or delay the development of tumors.
An effective development window for prevention treatment has also been shown for RU-486 (data not shown). I would appear that the time window for treatment is important.

[3] = system: BRCA1^Δ11p53^Δ5&6 mammary glands; test: Immunostaining for cleaved caspase 3 in treated mammary glands; assay type: in vivo, mouse; details: 3 wk or 5 wk post pellet implantation
[4] = system: BRCA1^Δ11p53^Δ5&6 conditional knockout mice (mammary tumors); test: Pellet implantation and weekly monitoring for mammary tumor formation in BRCA1/p53 deficient mice; assay type: in vivo, mouse; details: 5 mg/60 days constant release pellet
[5] = molecular target: T1, PR (Homo sapiens, UniProt P06401); details: cited from earlier work
T1 sequence (P06401 1-933): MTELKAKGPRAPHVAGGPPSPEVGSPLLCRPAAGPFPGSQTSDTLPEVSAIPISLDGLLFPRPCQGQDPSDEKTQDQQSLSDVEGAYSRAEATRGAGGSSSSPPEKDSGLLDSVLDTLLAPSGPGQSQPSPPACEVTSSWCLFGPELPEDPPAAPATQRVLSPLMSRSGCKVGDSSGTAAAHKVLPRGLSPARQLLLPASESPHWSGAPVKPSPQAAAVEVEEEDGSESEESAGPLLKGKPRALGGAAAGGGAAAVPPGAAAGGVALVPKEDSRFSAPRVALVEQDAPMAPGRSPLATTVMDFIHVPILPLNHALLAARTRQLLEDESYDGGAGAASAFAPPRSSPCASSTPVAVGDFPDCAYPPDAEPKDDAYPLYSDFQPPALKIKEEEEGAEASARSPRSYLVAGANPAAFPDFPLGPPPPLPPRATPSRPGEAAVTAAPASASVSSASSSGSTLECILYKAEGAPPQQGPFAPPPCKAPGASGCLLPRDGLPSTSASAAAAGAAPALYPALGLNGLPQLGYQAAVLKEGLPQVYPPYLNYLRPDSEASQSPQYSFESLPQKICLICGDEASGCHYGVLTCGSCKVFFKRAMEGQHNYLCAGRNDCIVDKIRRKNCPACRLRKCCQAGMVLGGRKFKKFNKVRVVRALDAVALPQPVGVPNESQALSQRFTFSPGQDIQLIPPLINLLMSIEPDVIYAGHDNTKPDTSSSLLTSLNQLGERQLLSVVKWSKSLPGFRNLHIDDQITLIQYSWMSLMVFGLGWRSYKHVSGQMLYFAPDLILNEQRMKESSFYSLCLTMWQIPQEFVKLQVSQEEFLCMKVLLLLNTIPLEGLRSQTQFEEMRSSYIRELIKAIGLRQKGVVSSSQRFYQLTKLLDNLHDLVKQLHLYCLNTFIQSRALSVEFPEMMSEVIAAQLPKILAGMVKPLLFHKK

[6] = system: mammary epithelial cells (MECs); test: Hormone-induced proliferation of mammary epithelial cells in ovariectomized mice (BrdU incorporation); assay type: in vivo, mouse; details: 1 mg progesterone daily for 3 days
Procedure: MEC proliferation peaks at the estrous phase when progesterone level is highly elevated. To assess the contribution of steroid hormones to MECs proliferation an ovariectomy was performed to deplete circulating estrogen and progesterone. Since PR is one of the downstream target genes of ER, progesterone activity was targeted. Two weeks after ovariectomy mice were treated with progesterone daily for 3 days followed by BrdU pulse labeling. In control vehicle treated mice, no BrdU-positive MECs were found in ovariectomized wt, and p53^Δ5&6 gland, but ducts containing one or two BrdU-positive cells were detected in BRCA1^Δ11p53^Δ5&6 mammary glands (FIG. 2A). Elevated proliferation seen under ovarian hormone depletion is related to the ligand-independent activation of PR in BRCA1-deficient cells. Importantly, a higher number of BrdU-positive MECs was found in BRCA1^Δ11p53^Δ5&6 mammary glands upon exposure to progesterone; ducts containing up to 6 BrdU-positive cells were identified (FIG. 2A).
Two weeks before steroid hormone treatment animals were bilaterally ovariectomized Mammary glands were stimulated to proliferate with daily subcutaneous injections of either 1 μg of estradiol (E2758, Sigma, St. Louis, Mo.) or 1 mg of progesterone (P8783, Sigma, St. Louis, Mo.) for 3 days. Untreated mice were used as controls.

[7] = system: PR-A; test: Inhibition of proteasome degradation: PR protein level in mouse MECs (western blotting); assay type: cell-based; details: 10 μM MG132 for 4 hr
Excerpt: (§2) MEC cultures from BRCA1^Δ11p53^Δ5&6 and p53^Δ5&6 mammary glands of two-month-old mice when MECs are histologically normal were created. The amount of PR protein, determined by western blotting, was 3-fold higher in BRCA1^Δ11p53^Δ5&6 than in p53^Δ5&6 MECs (FIG. 2D, lanes 1, 3). To further establish that PR protein stability is modulated by a proteasome pathway, MECs were exposing to MG132. PR-A was stabilized in p53^Δ5&6 but not in BRCA1^Δ11p53^Δ5&6 MECs (FIG. 2D, lanes 2, 4).
(§3) One day after plating, proliferating sub-confluent MECs or T47D cells were treated with 10 μM MG132 (BioMol Research Laboratories, Plymouth Meeting, Pa.) for 4 hr. Vehicle DMSO was added to the medium of untreated control cells. For the half-life study, 100 μg/ml of cyclohexamide (Sigma) was used and cells were harvested 0-6 hours after the addition of cyclohexamide. Cells were washed in PBS and protein lysates were prepared as described above.

[8] = system: PR-A; test: Inhibition of proteasome degradation: PR-A and ERα levels in T47D cells with siLuc or siBRCA1 (western blotting); assay type: cell-based, human
Procedure: To further test whether BRCA1 specifically affects PR stability, adenoviral siRNA-mediated knockdown of BRCA1 was introduced to T47D cells. […] In the absence of a ligand, PR-A was very stable and no significant differences were detected between siLuc and siBRCA1 knockdown cells (FIG. 3A, lanes 5, 6). The amount of PR-B was analyzed by immunoprecipitation followed by western blot (FIG. 8). Depletion of BRCA1 by adenoviral siRNA led to PR-A and PR-B accumulation.
as §3

[9] = molecular target: T2, PR-A (Mus musculus, UniProt Q00175); test: Determination of PR half-life in MECs with cyclohexamide and R5020; assay type: cell-based; details: 10 nM R5020, 100 μg/ml cyclohexamide
T2 construct: endogenous in cells; host or cells: primary mouse mammary epithelial cells (MECs) from p53 and BRCA1/p53 conditional knockout mammary glands
T2 sequence (Q00175 1-761 isoform Q00175-2): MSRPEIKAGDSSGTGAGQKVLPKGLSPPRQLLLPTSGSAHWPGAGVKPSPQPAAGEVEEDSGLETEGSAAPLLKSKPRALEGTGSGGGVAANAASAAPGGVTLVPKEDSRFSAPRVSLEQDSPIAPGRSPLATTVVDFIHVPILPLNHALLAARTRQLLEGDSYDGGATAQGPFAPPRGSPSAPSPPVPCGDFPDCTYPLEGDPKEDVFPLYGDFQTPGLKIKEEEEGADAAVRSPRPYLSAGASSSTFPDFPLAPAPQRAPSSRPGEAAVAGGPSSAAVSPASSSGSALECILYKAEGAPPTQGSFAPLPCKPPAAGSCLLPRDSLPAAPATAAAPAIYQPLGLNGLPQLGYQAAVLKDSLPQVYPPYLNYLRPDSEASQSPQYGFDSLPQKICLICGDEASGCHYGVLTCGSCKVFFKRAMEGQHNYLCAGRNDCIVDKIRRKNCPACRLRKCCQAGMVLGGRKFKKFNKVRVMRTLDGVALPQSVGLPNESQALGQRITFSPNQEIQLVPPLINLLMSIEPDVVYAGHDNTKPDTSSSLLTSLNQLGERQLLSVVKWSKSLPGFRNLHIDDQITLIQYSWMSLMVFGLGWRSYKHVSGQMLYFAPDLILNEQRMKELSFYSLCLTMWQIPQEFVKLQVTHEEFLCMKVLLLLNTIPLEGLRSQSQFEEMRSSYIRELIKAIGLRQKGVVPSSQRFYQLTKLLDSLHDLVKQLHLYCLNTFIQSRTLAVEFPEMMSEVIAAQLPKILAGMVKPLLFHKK
Excerpt: as §2, §3

## CC#C[C@]1(O)CC[C@H]2[C@@H]3CCC4=CC(=O)CCC4=C3[C@@H](c3ccc(N(C)C)cc3)C[C@@]21C [mifepristone]
[1]; five weeks of treatment, 35 mg/60-day pellet
  side branches of mammary glands: substantial reduction
[1]; five weeks of treatment, 35 mg/60-day pellet, placebo 678±49
  ducts in an approximate area of 0.012 mm^2: 33±7 ducts
[2]; BRCA1/p53 deficient mice
  mammary tumorigenesis / tumor formation (in words): effective prevention of tumor formation; also recorded: prevents tumorigenesis; also recorded: inhibits mammary tumorigenesis
[2]; 35 mg/60 days constant release pellet implanted at 3-4 months, n=14, BRCA1^Δ11p53^Δ5&6 mice
  palpable tumors at 12 months of age: no palpable tumors were detected
[3]
  apoptotic cells (cleaved caspase 3): few apoptotic cells

## CC(=O)O[C@]1(C(C)=O)CC[C@H]2[C@@H]3CCC4=CC(=O)CCC4=C3[C@@H](c3ccc(N(C)C)cc3)C[C@@]21C [CDB-2914, 17α-acetoxy-11β-(4-N,N-dimethylaminophenyl)-19-norpregna-4,9-diene-3,20-dione]
[1]; Brca1^f/fp53^f/fCrec mouse, 7.0-month-old, 35 mg/60 day pellet at 14-wk-old
  ductal branching of the mammary gland: inhibits ductal branching
[2]; 35 mg time release (60 day) pellet, BRCA1/p53 deficient mice, age 14 weeks, n=4
  inhibition of tumors compared to control implants: 100%
[2]; BRCA1/p53 deficient mice
  mammary tumorigenesis / tumor formation (in words): has a preventative effect; also recorded: inhibits mammary tumorigenesis; also recorded: effective in delaying mammary tumors
[2]; two-month-release pellet implanted before 14 weeks of age, n=4
  development of palpable tumors: delayed development of palpable tumors
[2]; two-month-release pellet placed after 15 wks
  development of palpable tumors: failed to do so
[4]
  efficacy in tumor prevention (in words): failed to show any efficacy
[5]
  other receptor properties: anti-glucorcorticoid and anti-androgen properties
[5]; competitive
  binding to PR: high affinity

## CC(=O)[C@H]1CC[C@H]2[C@@H]3CCC4=CC(=O)CC[C@]4(C)[C@H]3CC[C@]12C [progesterone]
[6]; BRCA1^Δ11p53^Δ5&6 mammary glands
  BrdU-positive cells per duct: up to 6
[6]; wt or p53^Δ5&6 mammary gland
  BrdU-positive cells in the majority of MECs: did not contain BrdU-positive cells

## CC(C)C[C@@H](C=O)NC(=O)[C@H](CC(C)C)NC(=O)[C@H](CC(C)C)NC(=O)OCc1ccccc1 [MG132] (Cbz-Leu-Leu-Leu-aldehyde)
[7]; BRCA1^Δ11p53^Δ5&6 MECs
  PR-A stabilization: not
[7]; p53^Δ5&6 MECs
  PR-A stabilization: stabilized
[8]; control siLuc infected cells, with R5020, 1.0 without MG132
  PR-A density (western blot): 3.8
[8]; siBRCA1 infected cells, with R5020, 3.2 without MG132
  PR-A density (western blot): 3.6
[8]; siLuc or siBRCA1 knockdown cells
  ERα stabilization: stabilized to a similar extent

## CCC(=O)[C@@]1(C)CC[C@H]2[C@@H]3CCC4=CC(=O)CCC4=C3CC[C@@]21C [R5020]
[9]; BRCA1^Δ11p53^Δ5&6 MECs
  PR-A present at 6 hr post R5020 treatment: 90%
[9]; p53^Δ5&6 MECs
  half-life of PR-A: 2.8 h
